Measurements taken from patent publication US20100138957A1 (priority 2007, published 2010).

Columns and labels:
Pseudomonas aeruginosa = conditions: cited from earlier work
Xylella fastidiosa = conditions: in vivo
[1] = test system: 18 bacterial and fungal microorganisms; conditions: cited from earlier work
[2] = test system: pathogenic Vibrio bacteria; conditions: intraperitoneal injection, juvenile coho salmon; cited from earlier work
[3] = test system: human intestinal epithelial cells; conditions: cited from earlier work

KWKLFKKIGIGAVLKV TTGLPALKTLK [CEMA]
MIC (Pseudomonas aeruginosa): 2.8 μg per ml

MAKWKLFKKIGIGFKKAAHVGKAALTK [B-passerin]
time plants survived stringent disease challenges with no or lessened visible symptoms (Xylella fastidiosa): up to 12 months | time surviving plants remained symptomless (Xylella fastidiosa): over 8 months | transgenic plants that survived the high stringency greenhouse test (Xylella fastidiosa): 90%

Pleurocidin: 25-residue cationic antimicrobial peptide from skin secretions of winter flounder (GWGSFFKKAAHVGKHVGKAALTHYL; Pleurocidin; UniProt P81941 23-47, looked up)
microorganisms against which the peptide was effective [1]: 17 of the 18 | efficacy against lethal vibriosis compared to CEME [2]: more effective | cytotoxic effects [3]: no cytotoxic effects
